Laboratory results from US12539333B2, “Tetracycline complexes with sustained activity” (FRAUNHOFER-GESELLSCHAFT ZUR FÖRDERUNG DER ANGEWANDTEN …, priority 2018, dated 2026).
In brackets after ≈: the same amount, converted by molar mass. Entries after “also recorded” stand apart in the source; their conditions may differ.

Legend:
[1] = Stability in aqueous environment (HPLC)
Experimental: For the stability investigations an Agilent 1200 Series system with a XTerra RP18 5 μm 3.9×150 column (Waters) was utilized. 10 μl sample volume were injected at a flowrate of 1.0 ml/min. For this method was also a gradient program applied. The mobile phase started with a composition of water/methanol (95/5+0.1% TFA) (A) and was shifted over 7 minutes to pure methanol (0.1% TFA) (B). After 3 minutes the mobile phase returned to solvent A within 1 minute. The retention time was 4.8 minutes. For the evaluation and extraction of the chromatograms, the Chem32 software was used.
For the stability investigation, 10 mg samples for minocycline and 20 mg for the complex were weighed into 4 ml glass vials. One of each vial was incubated in 4 ml of PBS pH 7.0 and another vial was exposed to 4 ml of an acidic solution at pH 2.3, which was adjusted with hydrochloric acid. Until the 9th day, samples were taken every day, while the removed volume was not replaced. From there on the intervals were stretched to 3 to 4 days.

S. aureus ATCC 29213 = test: Agar disc diffusion test; assay type: cell-based, Staphylococcus aureus; settings: 30 μg of minocycline per disc; 35° C., 18 h
Experimental: . The procedure followed the recommendations set by EUCAST.
Test substance was the minocycline complex containing 10 mg/ml minocycline and controls were minocycline dissolved in ethanol (10 mg/ml), and pure ethanol. Solutions were diluted 3:7 with ethanol and immediately thereafter each 10 μl were pipetted to unloaded antibiotic test discs with a diameter of 6 mm (BD, Allschwil, Switzerland), thus each discs (except for ethanol control) contained 30 μg of minocycline. Overnight culture of S. aureus ATCC 29213 was suspended to McFarland 0.5, each 100 μl was spread on Mueller-Hinton-agar plate (Oxoid, Basingstoke, GB). Following the evaporation of the solvent, the test discs were placed on the plates. After incubation at 35° C. for 18 h, the diameters of the inhibition zones were measured.

[2] = test system: Porphyromonas gingivalis ATCC 33277; test: MIC determination of eluates and calculated effective concentration of minocycline; assay type: cell-based; settings: for Effective concentration of minocycline, calculated based on the MIC of the eluates (dilutions): P. ging.
Excerpt: (§1) In order to assess the release kinetics and biological activity of the active substances, an approach was chosen taking into consideration the conditions in the oral cavity, namely the flow rate (turnover) and composition of the sulcus in the gingival crevicular fluid (as described in Goodson, J M (2003), Periodontol 2000 31:43-54; Tew, J G et al. (1985), Infect Immun 49:487-93).

[3] = test system: Streptococcus gordonii ATCC 10558; test: as above; assay type: cell-based; settings: for Effective concentration of minocycline, calculated based on the MIC of the eluates (dilutions): S. gord.
Excerpt: as §1

With “1:2 Complex of Minocycline (Free Base) and Magnesium Stearate [Example 1]” as the compound, how does the “time after which the minocycline peak is still visible” value ([1]; PBS pH 7.0, 37° C.) read?
Its value is no less than 3 weeks.

And the “decay in aqueous environment” value ([1]; neutral conditions, 37° C.)?
Its value is “much slower”.

What about the “diameter of the inhibition zone” value (S. aureus ATCC 29213) of the same compound?
Its value is 24 mm.

Which “time within which the minocycline peak vanishes” value ([1]; PBS pH 7.0, 37° C.) does the source give for CN(C)c1ccc(O)c2c1C[C@H]1C[C@H]3[C@H](N(C)C)C(O)=C(C(N)=O)C(=O)[C@@]3(O)C(O)=C1C2=O [Minocycline, (4S,4aS,5aR,12aR)-4,7-bis(dimethylamino)-1,10,11,12a-tetrahydroxy-3,12-dioxo-4a,5,5a,6-tetrahydro-4H-tetracene-2-carboxamide] here?
The value was no more than 3 days.

And the “decay in aqueous environment” value ([1]; acidic conditions pH 2.3, 37° C.)?
Its value is “decomposition process is slower; also recorded: more moderate decay”.

What about the “time to complete decomposition” value ([1]; buffer (PBS) pH 7.1, 37° C.) of the same compound?
The value was 3 days.

And the MIC ([2]; Porphyromonas gingivalis, ATCC33277, P. gingivalis ATCC 33277)?
Its MIC is 0.25 µg/mL (≈ 0.546 µM).

And the “Effective concentration of minocycline, calculated based on the MIC of the eluates (dilutions)” value ([2]; eluate 1 h)?
Its value is greater than 32000.

And the “Effective concentration of minocycline, calculated based on the MIC of the eluates (dilutions)” value ([2]; eluate 2 h)?
Its value is 2000.

And the “Effective concentration of minocycline, calculated based on the MIC of the eluates (dilutions)” value ([2]; eluate 4 h)?
The value was 1000.

What about the “Effective concentration of minocycline, calculated based on the MIC of the eluates (dilutions)” value ([2]; eluate 24 h) of the same compound?
The value was 500.

And the “Effective concentration of minocycline, calculated based on the MIC of the eluates (dilutions)” value ([2]; eluate 2 d)?
The value was 62.5.

What about the “Effective concentration of minocycline, calculated based on the MIC of the eluates (dilutions)” value ([2]; eluate 7 d) of the same compound?
Its value is 62.5.

What about the “Effective concentration of minocycline, calculated based on the MIC of the eluates (dilutions)” value ([2]; eluate 14 d) of the same compound?
The value was 4.

And the “Effective concentration of minocycline, calculated based on the MIC of the eluates (dilutions)” value ([2]; eluate 21 d)?
Its value is less than 1.

What about the “Effective concentration of minocycline, calculated based on the MIC of the eluates (dilutions)” value ([2]; eluate 28 d) of the same compound?
Its value is less than 1.

What about the “Effective concentration of minocycline, calculated based on the MIC of the eluates (dilutions)” value ([2]; eluate 35 d) of the same compound?
The value was less than 1.

What about the “Effective concentration of minocycline, calculated based on the MIC of the eluates (dilutions)” value ([2]; eluate 42 d) of the same compound?
Its value is less than 1.

And the MIC ([3]; Streptococcus gordonii, ATCC10558, S. gordonii ATCC 10558)?
Its MIC is 0.5 µg/mL (≈ 1.09 µM).

And the “Effective concentration of minocycline, calculated based on the MIC of the eluates (dilutions)” value ([3]; eluate 1 h)?
Its value is greater than 16000.

And the “Effective concentration of minocycline, calculated based on the MIC of the eluates (dilutions)” value ([3]; eluate 2 h)?
The value was 8000.

And the “Effective concentration of minocycline, calculated based on the MIC of the eluates (dilutions)” value ([3]; eluate 4 h)?
Its value is 2000.

What about the “Effective concentration of minocycline, calculated based on the MIC of the eluates (dilutions)” value ([3]; eluate 24 h) of the same compound?
Its value is 250.

And the “Effective concentration of minocycline, calculated based on the MIC of the eluates (dilutions)” value ([3]; eluate 2 d)?
Its value is 62.5.

What about the “Effective concentration of minocycline, calculated based on the MIC of the eluates (dilutions)” value ([3]; eluate 7 d) of the same compound?
The value was 4.

What about the “Effective concentration of minocycline, calculated based on the MIC of the eluates (dilutions)” value ([3]; eluate 14 d) of the same compound?
The value was less than 2.

What about the “Effective concentration of minocycline, calculated based on the MIC of the eluates (dilutions)” value ([3]; eluate 21 d) of the same compound?
The value was less than 2.

What about the “Effective concentration of minocycline, calculated based on the MIC of the eluates (dilutions)” value ([3]; eluate 28 d) of the same compound?
The value was less than 2.

What about the “Effective concentration of minocycline, calculated based on the MIC of the eluates (dilutions)” value ([3]; eluate 35 d) of the same compound?
The value was less than 2.

What about the “Effective concentration of minocycline, calculated based on the MIC of the eluates (dilutions)” value ([3]; eluate 42 d) of the same compound?
Its value is less than 2.

And the “diameter of the inhibition zone” value (S. aureus ATCC 29213)?
Its value is 26 mm.
